Experimental findings from patent US5194605A, “Cyclic renin inhibitors containing 2-substituted (3S,4S)-4-amino-5-cyclohexyl-3-hydroxy pentanoic acid, 2-substituted (3S,4S)-5-cyclohexyl-3,4-di-hydroxy pentanoic acid or 2-substituted (4S,5S)-5-amino-6-cyclohexyl-4-hydroxyhexanoic acid or its analogs” (Merck & Co., Inc., priority 1991, dated 1993) are described below.

The conditions of data set [1]: amide bond, DPPA, Et3N, DMF, 1.75 mM, 4.0 °C.
Data set [2] deals with conscious sodium-deficient Rhesus monkeys. In words: intravenous evaluation of renin inhibitors in conscious sodium-deficient Rhesus monkeys (blood pressure lowering). The class given is in vivo, Rhesus monkey. As to conditions: i.v. bolus, mean arterial pressure. The text has this:
The following methods were used for in vivo evaluation of the renin inhibitors of Formula I: Intravenous evaluation of renin inhibitors in concious sodium-deficient Rhesus monkeys: Rhesus monkeys, male and female, weighing 2.6-4.5 Kg, were surgically prepared with chronic arterial and venous catheters and vascular access ports for direct monitoring of mean arterial pressure (MAP) and heart rate (HR). The animals were maintained on a low sodium diet (1.2 mmol Na/day) plus friut for a week, and administered LASIX (furosemide) at 2.5 mg/Kg, intramuscularly the evening prior to the experiment. […] The inhibitors were administered by bolus injection using 0.5% acetic acid-5% dextrose in water as the vehicle (0.4 ml/Kg), and MAP and HR were measured. […] PRA was determined as described above. […] A projected ED50 dose for each inhibitor was calculated using the following furmula: ED50 (Test Inhibitor, umoles/Kg)=ED50 (SCRIP)×[IC50 (Test Inhibitor)/IC50 (SCRIP)], where the IC50 values were determined against human plasma renin. […] Percent inhibition of monkey PRA, changes in MAP and HR were calculated and plotted against time. […] The inhibitors were administered orally as a solution (2.5 ml/Kg) in 0.1M citric acid, and MAP and HR were measured over time. […] Percent inhibition of primate PRA and peak changes in MAP and HR were calculated. […]

The structures appear in SMILES notation. Like-named read-outs stand apart in the source and are kept apart here. Square brackets hold non-standard residues; d marks the D form. Peptide text beside a SMILES is read from it. * marks the point of attachment. Sta = CC(C)C[C@H](N)[C@@H](O)CC(=O)O; Isovaleryl = CC(C)CC(=O)*

In data set [1] (from CC[C@H](C)CNC(=O)[C@@H](CCCCN)[C@H](O)[C@H](CC1CCCCC1)NC(=O)[C@H](CCC(=O)O)NC(=O)OC(C)(C)C, 120.3 h, 2 steps), `CC[C@H](C)CNC(=O)[C@H]1CCCCNC(=O)CC[C@H](NC(=O)OC(C)(C)C)C(=O)N[C@@H](CC2CCCCC2)[C@H]1O` returned a ring closure, yield of all isomers of 62%.

As for `CC[C@H](C)CNC(=O)[C@H]1CCCNC(=O)CC[C@H](NC(=O)OC(C)(C)C)C(=O)N[C@@H](CC2CCCCC2)[C@H]1O`, the ring closure, yield of all isomers in data set [1] (from CC[C@H](C)CNC(=O)[C@@H](CCCN)[C@H](O)[C@H](CC1CCCCC1)NC(=O)[C@H](CCC(=O)O)NC(=O)OC(C)(C)C, 145.0 h) was 18%.

Regarding `COC(=O)[C@H]1CCCCNC(=O)CC[C@H](NC(=O)OC(C)(C)C)C(=O)N[C@@H](CC2CCCCC2)[C@H]1O`, the ring closure, yield of all isomers in data set [1] (from COC(=O)[C@@H](CCCCN)[C@H](O)[C@H](CC1CCCCC1)NC(=O)[C@H](CCC(=O)O)NC(=O)OC(C)(C)C, 120.3 h) came out at 62%.

`CC(C)CC(=O)N[C@@H](Cc1cnc[nH]1)C(=O)N1CCC[C@H]1C(=O)N[C@@H](Cc1ccccc1)C(=O)N[C@@H](Cc1cnc[nH]1)C(=O)N[C@@H](CC(C)C)[C@@H](O)CC(=O)N[C@@H](CC(C)C)C(=O)N[C@@H](Cc1ccccc1)C(N)=O` [SCRIP, Iva-His-Pro-Phe-His-Sta-Leu-Phe-NH2] (Isovaleryl-HPFH[Sta]LF-NH2): in data set [2], the “ED50 (i.v. dose required to lower blood pressure by 50% of the maximal response)” value came to 0.039 µmol/kg.
